Results taken from patent publication US9815832B2 (priority 2013, dated 2017).
pIC50: −log10 of the molar value. Counter-ions that a name gives are not always drawn.

Target: human recombinant PDE4B (Homo sapiens (Human), UniProt Q07343, S133E/S654A/S659A/S661A)
Settings: read-out: Human PDE4B FL
Method: Reactions are incubated for 30 min at 25° C. The addition of 20 μL of 8 mg/mL yitrium silicate SPA beads (PerkinElmer) stops the reaction. The plates are sealed (TopSeal, PerkinElmer) and the beads are allowed to settle for 8 hrs, after which they are read on the Trilux Microbeta overnight.

Chain of human recombinant PDE4B (Q07343 122-736 S133E/S654A/S659A/S661A): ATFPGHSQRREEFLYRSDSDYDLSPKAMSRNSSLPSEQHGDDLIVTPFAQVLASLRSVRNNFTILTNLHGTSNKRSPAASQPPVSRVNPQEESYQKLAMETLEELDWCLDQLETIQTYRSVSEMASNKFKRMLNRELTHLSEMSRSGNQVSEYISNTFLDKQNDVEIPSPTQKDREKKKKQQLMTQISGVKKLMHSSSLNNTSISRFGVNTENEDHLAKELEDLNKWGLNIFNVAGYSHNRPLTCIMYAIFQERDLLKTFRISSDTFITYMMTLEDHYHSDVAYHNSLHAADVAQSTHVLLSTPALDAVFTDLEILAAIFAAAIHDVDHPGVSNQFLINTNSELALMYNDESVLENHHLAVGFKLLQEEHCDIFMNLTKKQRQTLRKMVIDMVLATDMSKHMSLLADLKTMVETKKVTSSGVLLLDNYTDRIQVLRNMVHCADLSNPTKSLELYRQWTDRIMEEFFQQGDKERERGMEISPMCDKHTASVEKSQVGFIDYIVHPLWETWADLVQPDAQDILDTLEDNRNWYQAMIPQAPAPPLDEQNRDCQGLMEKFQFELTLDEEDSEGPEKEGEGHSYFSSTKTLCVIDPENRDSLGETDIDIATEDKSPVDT

Row | SMILES | pIC50
1 | O=C(NC1CC1)c1nc2cccnc2n1-c1cc(F)c(F)c(F)c1 [Example 30, N-Cyclopropyl-3-(3,4,5-trifluorophenyl)-3H-imidazo[4,5-b]pyridine-2-carboxamide, trifluoroacetate salt] | 8.24
2 | CCCNC(=O)c1nc2cccnc2n1-c1ccc(Cl)c(F)c1 [Example 6, 3-(4-Chloro-3-fluorophenyl)-N-propyl-3H-imidazo[4,5-b]pyridine-2-carboxamide] | 7.42
3 | O=C(NC1CC1)c1nc2cccnc2n1-c1cc(F)ccc1Cl [Example 90, 3-(2-Chloro-5-fluorophenyl)-N-cyclopropyl-3H-imidazo[4,5-b]pyridine-2-carboxamide] | 5.03
4 | O=C(NC1CC1)c1nc2cccnc2n1-c1ccc2c(c1)CCC2 [Example 64, N-Cyclopropyl-3-(2,3-dihydro-1H-inden-5-yl)-3H-imidazo[4,5-b]pyridine-2-carboxamide] | 6.69
5 | Cn1ccc(NC(=O)c2nc3cccnc3n2C2CCCC2)n1 [Example 14, 3-Cyclopentyl-N-(1-methyl-1H-pyrazol-3-yl)-3H-imidazo[4,5-b]pyridine-2-carboxamide] | 6.09
6 | Cc1nc2ccc(-n3c(C(=O)NC4CC4)nc4cccnc43)cc2s1 [Example 73, N-Cyclopropyl-3-(2-methyl-1,3-benzothiazol-6-yl)-3H-imidazo[4,5-b]pyridine-2-carboxamide] | 6.29
7 | Cc1cc(F)ccc1-n1c(C(=O)NC2CC2)nc2cccnc21 [Example 60, N-Cyclopropyl-3-(4-fluoro-2-methylphenyl)-3H-imidazo[4,5-b]pyridine-2-carboxamide] | 5.92
8 | Cn1ncc2ccc(-n3c(C(=O)NC4CC4)nc4cccnc43)cc21 [Example 86, N-Cyclopropyl-3-(1-methyl-1H-indazol-6-yl)-3H-imidazo[4,5-b]pyridine-2-carboxamide] | 4.61
9 | O=C(NC1CC1)c1nc2cccnc2n1-c1cc(Cl)cc(Cl)c1 [Example 63, N-Cyclopropyl-3-(3,5-dichlorophenyl)-3H-imidazo[4,5-b]pyridine-2-carboxamide] | 7.17
10 | O=C(NC1CC1)c1nc2cccnc2n1-c1ccc2ncsc2c1 [Example 71, 3-(1,3-Benzothiazol-6-yl)-N-cyclopropyl-3H-imidazo[4,5-b]pyridine-2-carboxamide] | 6.81
11 | O=C(c1nc2cccnc2n1-c1cncc(Cl)c1)N1CCC1 [Example 38, Azetidin-1-yl[3-(5-chloropyridin-3-yl)-3H-imidazo[4,5-b]pyridin-2-yl]methanone] | 6.33
12 | N#Cc1cccc(-n2c(C(=O)NC3CC3)nc3cccnc32)c1 [Example 53, 3-(3-Cyanophenyl)-N-cyclopropyl-3H-imidazo[4,5-b]pyridine-2-carboxamide] | 6.54
13 | Cc1ccc(F)cc1-n1c(C(=O)NC2CC2)nc2cccnc21 [Example 44, N-Cyclopropyl-3-(5-fluoro-2-methylphenyl)-3H-imidazo[4,5-b]pyridine-2-carboxamide] | 5.78
14 | N#Cc1ccc(-n2c(C(=O)NC3CC3)nc3cccnc32)cc1 [Example 42, 3-(4-Cyanophenyl)-N-cyclopropyl-3H-imidazo[4,5-b]pyridine-2-carboxamide] | 6.56
15 | O=C(NC1CC1)c1nc2cccnc2n1C1CCOCC1 [Example 15, N-Cyclopropyl-3-(tetrahydro-2H-pyran-4-yl)-3H-imidazo[4,5-b]pyridine-2-carboxamide] | 5.76
